The values below come from ChEMBL document CHEMBL5465560, “Selectivity Literature for EUbOPEN Chemogenomic Library” (2024).

SMILES strings stand for the structures.

In assay [1] the target is T1, Dual specificity mitogen-activated protein kinase kinase 6 (Homo sapiens) (UniProt P52564).
T1 sequence (whole entry): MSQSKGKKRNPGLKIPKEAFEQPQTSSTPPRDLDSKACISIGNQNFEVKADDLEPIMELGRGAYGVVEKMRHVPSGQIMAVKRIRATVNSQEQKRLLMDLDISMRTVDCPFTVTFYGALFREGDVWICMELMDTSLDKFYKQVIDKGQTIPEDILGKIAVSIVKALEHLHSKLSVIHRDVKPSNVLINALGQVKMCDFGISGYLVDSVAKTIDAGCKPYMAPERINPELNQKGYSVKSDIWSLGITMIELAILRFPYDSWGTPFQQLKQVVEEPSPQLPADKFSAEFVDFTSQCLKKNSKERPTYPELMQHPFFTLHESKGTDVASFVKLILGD
Put plainly: Selectivity interaction (Upstate Kinase Profiler service (Millipore)) EUB0000056c MAP2K6. The note with it: at 1 µM.

The target in assay [2] is T2, Non-receptor tyrosine-protein kinase TNK1 (Homo sapiens) (UniProt Q13470).
T2 sequence (whole entry): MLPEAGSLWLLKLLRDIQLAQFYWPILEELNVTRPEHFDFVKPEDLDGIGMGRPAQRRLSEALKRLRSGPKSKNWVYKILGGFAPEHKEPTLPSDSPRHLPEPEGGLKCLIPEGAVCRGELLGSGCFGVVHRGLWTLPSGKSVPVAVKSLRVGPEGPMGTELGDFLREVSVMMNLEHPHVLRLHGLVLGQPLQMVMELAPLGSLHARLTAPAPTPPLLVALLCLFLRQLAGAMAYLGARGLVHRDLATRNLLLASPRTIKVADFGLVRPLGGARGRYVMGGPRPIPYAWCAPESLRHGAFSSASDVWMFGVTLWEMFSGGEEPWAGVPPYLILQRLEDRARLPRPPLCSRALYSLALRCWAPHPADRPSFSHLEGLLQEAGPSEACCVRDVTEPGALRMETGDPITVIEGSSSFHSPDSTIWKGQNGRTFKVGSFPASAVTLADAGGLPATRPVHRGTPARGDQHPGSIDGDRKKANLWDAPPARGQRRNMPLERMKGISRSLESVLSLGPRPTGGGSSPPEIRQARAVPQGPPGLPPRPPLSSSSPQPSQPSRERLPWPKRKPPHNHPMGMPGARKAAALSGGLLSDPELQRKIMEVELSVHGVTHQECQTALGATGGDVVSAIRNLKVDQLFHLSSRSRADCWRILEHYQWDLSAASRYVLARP
The note with it: at 10 µM.

Assay [3] addresses Serine/threonine-protein kinase MRCK alpha (Homo sapiens) (UniProt Q5VT25). The assay is described as follows: Selectivity interaction (KinomeScan (DiscoverX)) EUB0001049a CDC42BPA. The settings on record: at 1 µM.
In assay [4] the target is T3, Mitogen-activated protein kinase 15 (Homo sapiens) (UniProt Q8TD08).
T3 sequence (whole entry): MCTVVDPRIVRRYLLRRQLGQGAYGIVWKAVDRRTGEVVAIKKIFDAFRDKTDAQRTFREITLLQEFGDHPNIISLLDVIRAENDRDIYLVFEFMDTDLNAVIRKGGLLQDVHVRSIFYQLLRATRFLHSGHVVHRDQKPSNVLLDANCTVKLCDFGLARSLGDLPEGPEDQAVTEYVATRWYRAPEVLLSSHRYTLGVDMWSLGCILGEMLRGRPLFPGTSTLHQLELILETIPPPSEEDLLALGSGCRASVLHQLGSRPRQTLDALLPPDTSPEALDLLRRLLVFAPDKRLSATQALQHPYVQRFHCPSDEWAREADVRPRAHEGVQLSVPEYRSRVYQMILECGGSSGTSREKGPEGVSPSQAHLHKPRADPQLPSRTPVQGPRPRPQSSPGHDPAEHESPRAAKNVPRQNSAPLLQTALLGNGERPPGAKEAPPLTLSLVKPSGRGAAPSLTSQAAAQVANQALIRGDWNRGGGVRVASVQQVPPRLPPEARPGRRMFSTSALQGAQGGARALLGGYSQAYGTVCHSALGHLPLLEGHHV
Put plainly: Selectivity interaction (KinomeScan (DiscoverX)) EUB0000666a MAPK15. The settings on record: at 10 µM.

The subject of assay [5] is Proto-oncogene tyrosine-protein kinase receptor Ret (Homo sapiens), P07949 [M918T]. The assay is described as follows: (§1) Selectivity interaction (LanthaScreen Eu Kinase Binding Assay) EUB0001632a RET. The note with it: at 10 µM. (In general: TR-FRET usually uses a lanthanide donor and a delayed reading to cut background.)
In assay [6] the test system is Proto-oncogene tyrosine-protein kinase receptor Ret (Homo sapiens), P07949 [V804M]. Described as §1. The note with it: at 10 µM.
Assay [7] addresses Protein arginine N-methyltransferase 5 (Homo sapiens, UniProt O14744). The assay is described as follows: Selectivity interaction (Methyltransferase screen (radiometric assays, panel of 8 PRMTs, 21 protein lysine methyltransferases, 3 DNA methyltransferases, and one RNA methyltransferase)) EUB0000272b PRMT5.
For assay [8], the target named is Protein-tyrosine kinase 6 (Homo sapiens, UniProt Q13882). Put plainly: Selectivity interaction (KinomeScan (DiscoverX)) EUB0001619a PTK6. The settings on record: at 1 µM.
Sequence of Protein-tyrosine kinase 6 (Q13882 whole entry, looked up): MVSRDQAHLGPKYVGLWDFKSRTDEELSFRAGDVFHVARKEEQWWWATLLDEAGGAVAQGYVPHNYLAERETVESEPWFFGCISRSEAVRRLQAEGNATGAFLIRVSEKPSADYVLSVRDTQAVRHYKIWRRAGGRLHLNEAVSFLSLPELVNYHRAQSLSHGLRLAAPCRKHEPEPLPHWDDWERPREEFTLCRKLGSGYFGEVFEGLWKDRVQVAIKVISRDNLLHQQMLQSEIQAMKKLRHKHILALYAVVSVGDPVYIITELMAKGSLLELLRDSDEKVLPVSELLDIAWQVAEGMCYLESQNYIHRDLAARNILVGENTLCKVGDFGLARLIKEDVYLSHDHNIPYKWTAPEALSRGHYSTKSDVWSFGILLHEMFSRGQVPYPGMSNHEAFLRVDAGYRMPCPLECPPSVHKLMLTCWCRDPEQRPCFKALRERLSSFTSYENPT

Sequence of Protein arginine N-methyltransferase 5 (O14744 whole entry): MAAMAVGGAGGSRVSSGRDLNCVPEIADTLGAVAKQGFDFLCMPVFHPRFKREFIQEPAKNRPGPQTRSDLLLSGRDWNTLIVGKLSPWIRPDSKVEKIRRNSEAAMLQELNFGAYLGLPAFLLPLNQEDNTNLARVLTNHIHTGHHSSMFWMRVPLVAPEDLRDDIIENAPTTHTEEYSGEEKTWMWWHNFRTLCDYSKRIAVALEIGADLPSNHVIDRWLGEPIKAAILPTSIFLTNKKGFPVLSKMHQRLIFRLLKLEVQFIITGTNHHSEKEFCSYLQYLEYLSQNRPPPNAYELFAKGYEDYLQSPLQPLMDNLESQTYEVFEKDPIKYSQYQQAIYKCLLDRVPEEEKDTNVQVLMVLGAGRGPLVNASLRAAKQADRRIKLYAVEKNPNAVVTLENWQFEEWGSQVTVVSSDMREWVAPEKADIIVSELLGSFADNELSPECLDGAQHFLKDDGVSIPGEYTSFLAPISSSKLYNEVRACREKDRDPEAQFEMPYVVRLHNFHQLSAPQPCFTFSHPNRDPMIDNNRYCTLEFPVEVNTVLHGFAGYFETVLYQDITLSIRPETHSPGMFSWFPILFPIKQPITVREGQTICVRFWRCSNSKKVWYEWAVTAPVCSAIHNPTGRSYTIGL
Sequence of Serine/threonine-protein kinase MRCK alpha (Homo sapiens) (Q5VT25 whole entry): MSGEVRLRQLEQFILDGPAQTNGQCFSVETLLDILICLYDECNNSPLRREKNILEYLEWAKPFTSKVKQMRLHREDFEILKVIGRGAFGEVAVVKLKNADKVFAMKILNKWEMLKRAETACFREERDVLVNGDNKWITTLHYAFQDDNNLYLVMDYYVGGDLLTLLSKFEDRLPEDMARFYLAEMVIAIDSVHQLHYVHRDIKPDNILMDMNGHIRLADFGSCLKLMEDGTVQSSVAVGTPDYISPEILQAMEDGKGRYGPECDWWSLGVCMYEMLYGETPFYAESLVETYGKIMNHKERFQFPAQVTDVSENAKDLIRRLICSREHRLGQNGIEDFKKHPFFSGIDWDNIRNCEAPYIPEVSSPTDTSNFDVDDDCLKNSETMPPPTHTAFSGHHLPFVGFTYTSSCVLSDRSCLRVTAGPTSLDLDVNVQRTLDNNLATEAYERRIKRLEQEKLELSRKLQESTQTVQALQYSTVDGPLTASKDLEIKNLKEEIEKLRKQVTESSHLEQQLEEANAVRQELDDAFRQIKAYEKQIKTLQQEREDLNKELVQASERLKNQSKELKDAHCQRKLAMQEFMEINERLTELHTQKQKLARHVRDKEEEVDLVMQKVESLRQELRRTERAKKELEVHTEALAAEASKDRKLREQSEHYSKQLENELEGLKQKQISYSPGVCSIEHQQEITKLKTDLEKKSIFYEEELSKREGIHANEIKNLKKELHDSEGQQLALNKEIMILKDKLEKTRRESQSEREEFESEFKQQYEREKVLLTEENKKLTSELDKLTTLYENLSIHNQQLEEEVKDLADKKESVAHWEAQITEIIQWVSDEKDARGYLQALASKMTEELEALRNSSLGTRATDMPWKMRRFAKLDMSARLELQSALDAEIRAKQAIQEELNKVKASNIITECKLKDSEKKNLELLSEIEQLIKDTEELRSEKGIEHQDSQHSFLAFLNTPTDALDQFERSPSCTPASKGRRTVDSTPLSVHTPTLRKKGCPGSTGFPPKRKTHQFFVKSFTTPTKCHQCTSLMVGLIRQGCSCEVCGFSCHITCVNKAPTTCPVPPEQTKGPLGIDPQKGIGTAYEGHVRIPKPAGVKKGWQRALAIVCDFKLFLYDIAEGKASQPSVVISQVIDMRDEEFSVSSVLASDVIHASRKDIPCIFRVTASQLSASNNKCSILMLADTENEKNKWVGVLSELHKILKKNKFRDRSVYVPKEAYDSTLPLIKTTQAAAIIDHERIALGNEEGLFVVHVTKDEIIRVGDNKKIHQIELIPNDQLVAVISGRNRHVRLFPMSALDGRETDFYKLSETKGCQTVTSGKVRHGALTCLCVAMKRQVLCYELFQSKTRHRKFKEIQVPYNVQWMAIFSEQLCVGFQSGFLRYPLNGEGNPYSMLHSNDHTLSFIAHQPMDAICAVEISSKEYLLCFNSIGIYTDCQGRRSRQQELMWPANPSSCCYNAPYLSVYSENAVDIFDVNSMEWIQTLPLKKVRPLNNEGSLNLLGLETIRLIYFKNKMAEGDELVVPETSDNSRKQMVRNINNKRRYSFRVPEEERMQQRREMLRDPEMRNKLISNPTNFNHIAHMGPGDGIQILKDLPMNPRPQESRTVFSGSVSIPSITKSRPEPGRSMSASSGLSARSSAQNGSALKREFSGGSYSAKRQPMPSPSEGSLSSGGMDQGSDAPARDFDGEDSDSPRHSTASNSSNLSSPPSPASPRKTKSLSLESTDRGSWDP
Sequence of Proto-oncogene tyrosine-protein kinase receptor Ret (Homo sapiens), P07949 [V804M] (P07949 whole entry V804M): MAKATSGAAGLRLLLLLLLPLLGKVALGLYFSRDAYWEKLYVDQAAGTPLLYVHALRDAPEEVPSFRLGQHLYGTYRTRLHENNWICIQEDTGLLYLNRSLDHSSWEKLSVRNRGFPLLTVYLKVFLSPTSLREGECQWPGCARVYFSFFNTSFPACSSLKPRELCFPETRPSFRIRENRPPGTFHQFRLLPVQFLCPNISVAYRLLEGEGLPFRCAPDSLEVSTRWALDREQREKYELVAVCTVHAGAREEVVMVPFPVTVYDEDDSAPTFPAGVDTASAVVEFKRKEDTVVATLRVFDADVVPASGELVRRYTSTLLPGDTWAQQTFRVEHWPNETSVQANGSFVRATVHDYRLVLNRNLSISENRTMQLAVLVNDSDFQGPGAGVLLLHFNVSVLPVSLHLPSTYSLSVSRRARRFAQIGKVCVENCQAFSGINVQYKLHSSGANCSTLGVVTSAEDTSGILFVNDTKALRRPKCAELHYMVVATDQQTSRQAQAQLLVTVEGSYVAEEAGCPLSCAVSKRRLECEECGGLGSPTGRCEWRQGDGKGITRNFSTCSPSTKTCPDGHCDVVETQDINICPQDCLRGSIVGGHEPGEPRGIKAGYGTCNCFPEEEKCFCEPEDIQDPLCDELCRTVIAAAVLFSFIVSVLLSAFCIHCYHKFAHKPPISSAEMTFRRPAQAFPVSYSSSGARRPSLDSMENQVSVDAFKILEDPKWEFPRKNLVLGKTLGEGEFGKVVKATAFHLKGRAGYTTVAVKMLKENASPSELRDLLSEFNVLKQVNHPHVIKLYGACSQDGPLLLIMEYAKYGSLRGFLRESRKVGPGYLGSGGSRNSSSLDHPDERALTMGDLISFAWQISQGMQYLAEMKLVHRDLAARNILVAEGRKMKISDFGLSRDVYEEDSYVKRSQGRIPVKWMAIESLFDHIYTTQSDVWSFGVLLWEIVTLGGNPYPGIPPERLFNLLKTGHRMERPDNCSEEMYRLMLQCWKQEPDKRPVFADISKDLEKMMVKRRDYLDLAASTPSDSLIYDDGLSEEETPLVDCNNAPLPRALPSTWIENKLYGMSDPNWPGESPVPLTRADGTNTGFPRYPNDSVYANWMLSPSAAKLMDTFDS
Sequence of Proto-oncogene tyrosine-protein kinase receptor Ret (Homo sapiens), P07949 [M918T] (P07949 whole entry M918T): as the sequence (P07949 whole entry V804M) above, with M804V, M918T counted along it

With `Cc1ccc(-c2ccc3c(ccc4sc5c(c43)NC[C@@H](C)NC5=O)n2)cn1`, the % of inhibition in assay [1] amounted to 2%. In assay [2], `Cc1cc([C@@H](C)Nc2ccccc2C(=O)O)c2nc(N3CCOCC3)cc(=O)n2c1` [AZD-6482] showed a % of control of 100%. For `COc1cc(Nc2nc(C)cc(-c3cnn4nc(OC)ccc34)n2)cc(C(F)(F)F)c1`, in assay [3], the % of control is 92%. On to `O=C(NOC[C@H](O)CO)c1ccc(F)c(F)c1Nc1ccc(I)cc1F`, for which the % of control in assay [4] was 100%. Turning to `Cn1cc(-n2cnc3c(NCc4nc5cc(Cl)c(Cl)cc5[nH]4)nc(N4CCOCC4)nc32)cn1`, the % of inhibition was -33.9% in assay [5] and -50.1% in assay [6]. On to `Cc1cc(C)cc([C@H]2c3cc(C)ccc3NC(=O)CN2C(=O)c2ccc(Br)s2)c1`, for which the % of activity in assay [7] (at 1 µM) is 98.7%; in assay [7] (at 10 µM), 99%. Molecule `N#Cc1cccc(-c2c[nH]c3ncnc(N4CCOCC4)c23)c1` returned a % of control in assay [8] of 72%.
